Values of other authors in patent US10195165B2, “Methods of treating Prader-Willi syndrome” (Ovid Therapeutics Inc., priority 2015, dated 2019).

Assays:
serotonin 5HT2c receptor = molecular target: T1, serotonin 5HT2c receptor (Homo sapiens, UniProt P28335); settings: 1 μM captodiamine competing with a reference ligand
T1 construct: Novascreen
T1 sequence (P28335 33-458): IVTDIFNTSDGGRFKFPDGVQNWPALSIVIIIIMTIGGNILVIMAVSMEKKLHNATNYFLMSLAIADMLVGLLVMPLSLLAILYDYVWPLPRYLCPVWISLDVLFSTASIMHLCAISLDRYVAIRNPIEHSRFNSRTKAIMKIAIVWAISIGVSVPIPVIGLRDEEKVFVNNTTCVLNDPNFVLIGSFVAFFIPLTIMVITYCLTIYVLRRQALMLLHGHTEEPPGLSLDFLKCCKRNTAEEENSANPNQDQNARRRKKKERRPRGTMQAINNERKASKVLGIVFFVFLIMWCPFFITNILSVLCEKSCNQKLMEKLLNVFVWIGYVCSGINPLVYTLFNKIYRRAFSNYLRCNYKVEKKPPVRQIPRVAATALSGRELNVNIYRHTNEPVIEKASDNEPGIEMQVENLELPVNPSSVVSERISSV

[1] = system: car driving ability of individuals; settings: compared to lorazepam
Sigma 1 receptor [2] = molecular target: T2, Sigma 1 receptor (Homo sapiens, UniProt Q99720); parameters: Novascreen; settings: 1 μM captodiamine competing with a reference ligand
[3] = system: Brain Derived Neurotrophic Factor (BDNF)
Sigma 2 receptor = molecular target: T3, Sigma 2 receptor (Homo sapiens, UniProt Q5BJF2); settings: 1 μM captodiamine competing with a reference ligand
T3 construct: Novascreen

C57B16 mice [4] = settings: 3 and 5 mg/kg intraperitoneal once daily for 7 days
C57B16 mice [5] = settings: 3 and 5 mg/kg intraperitoneal once daily for 7 days; remark: listed apart in the source
Sigma 1 receptor [6] = molecular target: T2, Sigma 1 receptor
[7] = system: brain-derived neurotrophic factor (BDNF)
C57B16 mice [8] = settings: 3 and 5 mg/kg intraperitoneal once daily for 7 days; remark: listed apart in the source
C57B16 mice [9] = settings: 3 and 5 mg/kg intraperitoneal once daily for 7 days; remark: listed apart in the source
[10] = system: Glial Derived Neurotrophic Factor (GDNF)
C57B16 mice [11] = settings: 3 mg/kg dose, intraperitoneal; one-tailed t-test
5-HT2C = molecular target: T4, 5-HT2C (Homo sapiens, UniProt P28335)
T4 sequence (P28335 33-458): T1 sequence (P28335 33-458)

dopamine D3 [12] = molecular target: T5, dopamine D3 (Homo sapiens, UniProt P35462); parameters: Novascreen; settings: 1 μM captodiamine competing with a reference ligand
Target sequence in this assay (P35462 whole entry, species assumed): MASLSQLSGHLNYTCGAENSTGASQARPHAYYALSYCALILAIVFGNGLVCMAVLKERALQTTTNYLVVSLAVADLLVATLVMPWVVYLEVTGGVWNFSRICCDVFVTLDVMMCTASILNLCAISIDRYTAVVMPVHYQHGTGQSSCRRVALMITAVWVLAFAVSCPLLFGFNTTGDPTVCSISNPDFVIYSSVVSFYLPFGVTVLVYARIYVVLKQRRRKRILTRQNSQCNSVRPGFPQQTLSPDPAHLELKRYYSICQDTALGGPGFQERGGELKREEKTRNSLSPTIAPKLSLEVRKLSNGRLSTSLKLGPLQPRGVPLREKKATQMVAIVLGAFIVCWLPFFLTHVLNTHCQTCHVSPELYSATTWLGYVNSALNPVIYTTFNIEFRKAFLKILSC

C57B16 mice [13] = settings: 3 and 5 mg/kg intraperitoneal once daily for 7 days; remark: listed apart in the source
[14] = system: subjects with mild to moderate anxiety weaned from benzodiazepine
dopamine D3 [15] = molecular target: T5, dopamine D3
Target sequence in this assay (P35462 whole entry): as the sequence (P35462 whole entry, species assumed) above

T2 sequence (Q99720 whole entry, species assumed): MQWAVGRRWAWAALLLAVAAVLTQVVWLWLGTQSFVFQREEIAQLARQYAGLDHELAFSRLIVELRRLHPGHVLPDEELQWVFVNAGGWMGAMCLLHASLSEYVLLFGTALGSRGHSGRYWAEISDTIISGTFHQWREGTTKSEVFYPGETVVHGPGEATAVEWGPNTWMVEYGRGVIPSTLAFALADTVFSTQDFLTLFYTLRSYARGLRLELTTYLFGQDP
T3 sequence (Q5BJF2 whole entry, species assumed): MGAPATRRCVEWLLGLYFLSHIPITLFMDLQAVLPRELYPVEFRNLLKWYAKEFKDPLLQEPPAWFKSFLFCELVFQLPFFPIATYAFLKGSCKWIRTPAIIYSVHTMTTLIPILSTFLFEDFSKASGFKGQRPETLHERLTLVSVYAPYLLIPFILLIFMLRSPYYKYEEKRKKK

- percent target inhibition, serotonin 5HT2c receptor (serotonin 5HT2c receptor): greater than 80%
- percent target inhibition, Sigma 1 receptor (Sigma 1 receptor [2]): greater than 90%
- percent target inhibition, Sigma 2 receptor (Sigma 2 receptor): greater than 20%
- activity at sigma-1 receptor (Sigma 1 receptor [6]): sigma-1 receptor agonist
- activity at 5-HT2C (5-HT2C): 5-HT2C antagonist
- percent target inhibition, dopamine D3 receptor (dopamine D3 [12]): greater than 80%
- activity at dopamine D3 (dopamine D3 [15]): dopamine D3 agonist
Compound: CCCCSc1ccc(C(SCCN(C)C)c2ccccc2)cc1 (stereo not drawn) [captodiamine, 2-[(4-butylsulfanylphenyl)-phenylmethyl]sulfanyl-N,N-dimethylethanamine]
- concentration and dexterity when driving [1]: improved the concentration and dexterity
- tendency to drowsiness when driving [1]: without inducing a tendency to drowsiness
- BDNF expression levels and/or activity, hippocampus ([3]; hippocampus): no effect
- levels of expression of BDNF, hypothalamus ([3]; hypothalamus): significantly increased
- BDNF expression levels and/or activity, prefrontal cortex ([3]; prefrontal cortex): no effect
- pre-pulse inhibition paradigm (C57B16 mice [4]): no effect on the pre-pulse inhibition paradigm
- water maze spatial learning task (C57B16 mice [5]): significant pro-cognitive action
- BDNF protein levels, hypothalamus [7]: increase brain-derived neurotrophic factor (BDNF) protein levels in the hypothalamus
- time to immobility in the forced swim test (C57B16 mice [8]): significant increase on time to immobility
- exploring the open arms of the elevated X-maze (C57B16 mice [9]): significantly longer periods exploring the open arms
- levels of expression of GDNF, hypothalamus ([10]; hypothalamus): not in either the hippocampus or the hypothalamus
- levels of expression of GDNF, prefrontal cortex ([10]; prefrontal cortex): significantly decreased
- time investigating objects during the training phase, Novel Object Recognition Task (C57B16 mice [11]): significantly longer investigating objects during the training phase
- basal locomotion in the open-field paradigm (C57B16 mice [13]): no influence on basal locomotion
- time in the center of the arena (open-field) (C57B16 mice [13]): significantly more time in the center
- Tyrer Benzodiazepine Withdrawal Symptom Questionnaire (BWSQ) score ([14]; 150 mg/d for 45 days versus placebo, primary outcome): statistically significant difference (p<0.0001; ANCOVA with repeated measures) between the two study groups in favor of captodiamine
- drowsiness score ([14]; 150 mg/d versus placebo): declined from D0
- self-reported anxiety scores ([14]; 150 mg/d versus placebo, weaning and assessment phases): anxiety scores evolved little during the weaning phase and then fell during the assessment phase
- re-emergence of anxiety or withdrawal symptoms after stopping captodiamine ([14]; after treatment stopped at 45 days): no re-emergence of anxiety or evidence for withdrawal symptoms
- severity of benzodiazepine withdrawal symptoms ([14]; compared to placebo, background summary): lower severity of benzodiazepine withdrawal symptoms
